Biological target: T1, mouse DPP1 (Mus musculus, UniProt P97821)
T1 construct: Test articles were applied to active mouse DPP1 enzyme; purchased R&D Systems
Assay: Mouse DPP1 Enzyme IC50 Assay
Format: biochemical
Conditions: active mouse DPP1 enzyme, H-Gly-Arg-AMC substrate
Procedure: Test articles were applied to active mouse DPP1 enzyme (R&D Systems; Minneapolis, MN) in Assay Buffer (50 mM MES pH 5.5, 50 mM NaCl, 5 mM DTT) in a total reaction volume of 125 μL. 25 μL of compound in Assay Buffer plus 5% DMSO was first added to 50 μL of active mouse DPP1 enzyme at a concentration of […] and allowed to pre-incubate for 10 minutes at 37° C. after which 50 μL of 1000 μM H-Gly-Arg-AMC substrate (Bachem; St. Torrance, CA) was added, giving final substrate concentration of 400 μM and a final DMSO concentration of 1%. Substrate cleavage was measured for 90 minutes at 37° C., with fluorescence at Excitation/Emission 350/450 nm measured every 5 minutes. DPP1 concentration was interpolated based on its activity relative to a standard curve of recombinant active mouse DPP1 enzyme. IC50 values for each compound were calculated via the XLFit (IDBS Version 5.3.1.3) Add-On to Microsoft Excel using the four parameter fit equation y= (A+ ((B−A)/(1+ ((C/x)^D)))), which appears as equation number 205 (4 Parameter Logistic Model or Sigmoidal Dose-Response Model) in XLFit. Default constraints were used for each Parameter. IC50 was defined as the compound concentration at which 50% of enzyme activity was inhibited when compared to the no-compound control.

T1 sequence (P97821 25-134 limits assumed): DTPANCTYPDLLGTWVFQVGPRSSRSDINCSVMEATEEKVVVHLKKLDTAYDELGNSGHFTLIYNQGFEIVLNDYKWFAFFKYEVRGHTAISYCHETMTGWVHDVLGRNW
T1 sequence (P97821 231-393 limits assumed): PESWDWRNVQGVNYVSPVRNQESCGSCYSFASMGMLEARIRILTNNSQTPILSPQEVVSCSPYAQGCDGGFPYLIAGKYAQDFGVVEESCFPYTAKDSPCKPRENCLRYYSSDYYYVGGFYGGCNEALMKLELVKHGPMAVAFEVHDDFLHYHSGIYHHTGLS
T1 sequence (P97821 394-462 limits assumed): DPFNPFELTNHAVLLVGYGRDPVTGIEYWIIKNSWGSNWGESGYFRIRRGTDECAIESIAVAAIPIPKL

Cn1c(=O)oc2ccc(-c3ccc(C[C@@H](C#N)NC(=O)[C@@H]4CNCCCO4)c(F)c3)cc21 [INSM-204]
IC50: 5.6 ± 0.4 nM

From patent US20260242365A1, “USES OF CERTAIN 1,4-OXAZEPANE-2-CARBOXAMIDES AS DPP1 INHIBITORS” (Insmed Incorporated, priority 2023, published 2026)
